Reference: PubChem BioAssay AID330 (DTP/NCI, 2004)
Several values for one entry are separate records, joined by “and”; a condition that tells them apart may be missing. Equal values may be shown once. Inconclusive results and toxic doses are left out. Numbered stars: 1 amine (or outer) side, 2 acyl side, 3 side chain; on linkers, the order of the positions; unused ones are H or OH. Peptide text beside a SMILES is read from it. CO = O=C([*:1])[*:2]

System: P388 leukemia ip, CD2F1 mice, survival T/C
Assay: NCI In Vivo Anticancer Drug Screen. Data for tumor model P388 Leukemia (intraperitoneal) in CD2F1 (CDF1) mice
Conditions: endpoint: median survival time, higher = longer survival
In short: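 Mice carrying the transplanted tumor received test compound or vehicle. Survival was recorded in each group, and the value is the treated-group measurement divided by that of the vehicle-treated control group.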

[1] = dose: 50.0 mg/kg/injection, schedule: Q01DX005 (ip), vehicle: saline with Tween-80
[2] = dose: 100.0 mg/kg/injection, schedule: Q04DX003 (ip), vehicle: saline
[3] = dose: 6.25 mg/kg/injection, schedule: Q01DX009 (ip), vehicle: water
[4] = dose: 12.5 mg/kg/injection, schedule: Q01DX009 (ip), vehicle: water
[5] = dose: 25.0 mg/kg/injection, schedule: Q01DX009 (ip), vehicle: water
[6] = dose: 50.0 mg/kg/injection, schedule: Q01DX009 (ip), vehicle: Klucel (hydroxypropylcellulose) (HPC)
[7] = dose: 100.0 mg/kg/injection, schedule: Q01DX009 (ip), vehicle: Klucel (hydroxypropylcellulose) (HPC)
[8] = dose: 200.0 mg/kg/injection, schedule: Q01DX009 (ip), vehicle: Klucel (hydroxypropylcellulose) (HPC)
[9] = dose: 6.25 mg/kg/injection, schedule: Q01DX009 (ip), vehicle: saline with Tween-80
[10] = dose: 50.0 mg/kg/injection, schedule: Q01DX009 (ip), vehicle: saline with Tween-80
[11] = dose: 200.0 mg/kg/injection, schedule: Q01DX009 (ip), vehicle: saline with Tween-80
[12] = dose: 100.0 mg/kg/injection, schedule: Q01DX009 (ip), vehicle: saline with Tween-80
[13] = dose: 400.0 mg/kg/injection, schedule: Q01DX009 (ip), vehicle: saline with Tween-80
[14] = dose: 25.0 mg/kg/injection, schedule: Q01DX009 (ip), vehicle: saline
[15] = dose: 50.0 mg/kg/injection, schedule: Q01DX009 (ip), vehicle: saline

COC(=O)C1=C(N)N2C/C(=C/c3cccs3)SC2=C(C(=O)OC)C1c1cccs1 (centres undefined)
T/C (dose: 12.5 mg/kg/injection, schedule: Q01DX005 (ip), vehicle: saline with Tween-80): 96 % of control
T/C (dose: 25.0 mg/kg/injection, schedule: Q01DX005 (ip), vehicle: saline with Tween-80): 91 % of control
T/C [1]: 86 % of control and 91 % of control

COCC1(C)CCCC2(C)C3=C(CCC(O)C3)CCC12 (centres undefined)
T/C [2]: 99 % of control
T/C (dose: 200.0 mg/kg/injection, schedule: Q04DX003 (ip), vehicle: saline): 99 % of control
T/C (dose: 400.0 mg/kg/injection, schedule: Q04DX003 (ip), vehicle: saline): 97 % of control

CC(C)CCCCC(O)C1C(=O)OCC1CO (centres undefined)
T/C (dose: 7.25 mg/kg/injection, schedule: Q01DX005 (ip), vehicle: distilled water + alcohol): 101 % of control
T/C (dose: 14.5 mg/kg/injection, schedule: Q01DX005 (ip), vehicle: distilled water + alcohol): 104 % of control
T/C (dose: 29.0 mg/kg/injection, schedule: Q01DX005 (ip), vehicle: distilled water + alcohol): 111 % of control
T/C (dose: 58.0 mg/kg/injection, schedule: Q01DX005 (ip), vehicle: distilled water + alcohol): 105 % of control

C=C1C(=O)O[C@H]2[C@@H]3O[C@@H]3C[C@@H]12
T/C (dose: 1.56 mg/kg/injection, schedule: Q01DX009 (ip), vehicle: water): 105 % of control
T/C (dose: 3.13 mg/kg/injection, schedule: Q01DX009 (ip), vehicle: water): 97 % of control
T/C [3]: 99 % of control
T/C [4]: 100 % of control
T/C [5]: 109 % of control

O=C1Nc2ccccc2/C1=C/c1ccco1
T/C [6]: 99 % of control
T/C [7]: 113 % of control
T/C [8]: 89 % of control

CC(C)C(NC(=O)C(CCCN=C(N)N)NC(=O)NC(Cc1ccccc1)C(=O)O)C(=O)NC(C=O)Cc1ccccc1 (stereo not drawn) ({Phe-CO}-Arg-Val-Phe-aldehyde; configuration not given here)
T/C (dose: 8.25 mg/kg/injection, schedule: Q01DX005 (ip), vehicle: Klucel (hydroxypropylcellulose) (HPC)): 95 % of control
T/C (dose: 8.75 mg/kg/injection, schedule: Q01DX005 (ip), vehicle: Klucel (hydroxypropylcellulose) (HPC)): 99 % of control
T/C (dose: 16.5 mg/kg/injection, schedule: Q01DX005 (ip), vehicle: Klucel (hydroxypropylcellulose) (HPC)): 92 % of control
T/C (dose: 17.5 mg/kg/injection, schedule: Q01DX005 (ip), vehicle: Klucel (hydroxypropylcellulose) (HPC)): 99 % of control
T/C (dose: 33.0 mg/kg/injection, schedule: Q01DX005 (ip), vehicle: Klucel (hydroxypropylcellulose) (HPC)): 93 % of control
T/C (dose: 35.0 mg/kg/injection, schedule: Q01DX005 (ip), vehicle: Klucel (hydroxypropylcellulose) (HPC)): 93 % of control
T/C (dose: 66.0 mg/kg/injection, schedule: Q01DX005 (ip), vehicle: Klucel (hydroxypropylcellulose) (HPC)): 92 % of control
T/C (dose: 70.0 mg/kg/injection, schedule: Q01DX005 (ip), vehicle: Klucel (hydroxypropylcellulose) (HPC)): 87 % of control

COC(=O)c1nnc(C(=O)OC)c2c1c1ccccc1n2C(=O)c1ccccc1
T/C (dose: 60.0 mg/kg/injection, schedule: Q01DX005 (ip), vehicle: saline with Tween-80): 105 % of control
T/C (dose: 120.0 mg/kg/injection, schedule: Q01DX005 (ip), vehicle: saline with Tween-80): 93 % of control
T/C (dose: 240.0 mg/kg/injection, schedule: Q01DX005 (ip), vehicle: saline with Tween-80): 91 % of control

Nc1nc(N)c2cc(CNc3ccc(Cl)c(Cl)c3)ccc2n1
T/C [9]: 107 % of control
T/C (dose: 12.5 mg/kg/injection, schedule: Q01DX009 (ip), vehicle: saline with Tween-80): 110 % of control
T/C (dose: 25.0 mg/kg/injection, schedule: Q01DX009 (ip), vehicle: saline with Tween-80): 109 % of control

S=C(NCCCCCCNC(=S)Nc1ccc2ccccc2n1)Nc1ccc2ccccc2n1
T/C [6]: 100 % of control
T/C [7]: 97 % of control
T/C [8]: 91 % of control

NC(CSC(c1ccccc1)(c1ccccc1)c1ccccc1)C(=O)O (centres undefined)
T/C (dose: 1.56 mg/kg/injection, schedule: Q01DX009 (ip), vehicle: saline with Tween-80): 108 % of control
T/C (dose: 3.12 mg/kg/injection, schedule: Q01DX009 (ip), vehicle: Klucel (hydroxypropylcellulose) (HPC)): 86 % of control
T/C (dose: 6.25 mg/kg/injection, schedule: Q01DX009 (ip), vehicle: Klucel (hydroxypropylcellulose) (HPC)): 121 % of control and 90 % of control
T/C [9]: 119 % of control
T/C [3]: 110 % of control and 118 % of control
T/C (dose: 12.5 mg/kg/injection, schedule: Q01DX009 (ip), vehicle: Klucel (hydroxypropylcellulose) (HPC)): 92 % of control
T/C [4]: 118 % of control
T/C (dose: 20.0 mg/kg/injection, schedule: Q01DX001 (ip), vehicle: water): 104 % of control
T/C (dose: 25.0 mg/kg/injection, schedule: Q01DX009 (ip), vehicle: Klucel (hydroxypropylcellulose) (HPC)): 163 % of control
T/C [5]: 168 % of control
T/C (dose: 25.0 mg/kg/injection, schedule: Q01DX009 (oral), vehicle: saline with Tween-80): 123 % of control
T/C (dose: 40.0 mg/kg/injection, schedule: Q01DX001 (ip), vehicle: water): 111 % of control
T/C (dose: 40.0 mg/kg/injection, schedule: Q01DX009 (ip), vehicle: water): 168 % of control and 186 % of control
T/C [6]: 192 % of control
T/C [10]: 180 % of control [middle of 5 runs]
T/C (dose: 50.0 mg/kg/injection, schedule: Q01DX009 (ip), vehicle: water): 159 % of control and 163 % of control and 183 % of control
T/C (dose: 50.0 mg/kg/injection, schedule: Q01DX009 (oral), vehicle: saline with Tween-80): 119 % of control
T/C (dose: 66.0 mg/kg/injection, schedule: Q04DX003 (ip), vehicle: Klucel (hydroxypropylcellulose) (HPC)): 225 % of control
T/C (dose: 80.0 mg/kg/injection, schedule: Q01DX001 (ip), vehicle: water): 111 % of control
T/C [7]: 100 % of control
T/C (dose: 100.0 mg/kg/injection, schedule: Q01DX009 (oral), vehicle: saline with Tween-80): 153 % of control
T/C (dose: 100.0 mg/kg/injection, schedule: Q04DX003 (ip), vehicle: Klucel (hydroxypropylcellulose) (HPC)): 175 % of control
T/C [11]: 167 % of control and 175 % of control

C[C@]12CCC(=O)C=C1CC[C@@H]1[C@@H]2[C@@H](O)C[C@@]2(C)[C@H]1CC[C@]2(O)C(=O)COC(=O)c1ccc([N+](=O)[O-])cc1Cl
T/C [10]: 109 % of control
T/C [12]: 100 % of control
T/C [11]: 109 % of control and 86 % of control
T/C [13]: 86 % of control

COc1cc(N=Nc2ccc(N)nc2N)c(OC)cc1N=Nc1ccc([N+](=O)[O-])cc1
T/C [1]: 115 % of control
T/C (dose: 100.0 mg/kg/injection, schedule: Q01DX005 (ip), vehicle: saline with Tween-80): 107 % of control
T/C (dose: 200.0 mg/kg/injection, schedule: Q01DX005 (ip), vehicle: saline with Tween-80): 107 % of control

O=C(Sc1ccccc1)C1CC=CCC1 (centres undefined)
T/C [6]: 109 % of control
T/C [7]: 105 % of control

Cn1nccc1N
T/C [14]: 117 % of control
T/C [15]: 108 % of control

CSc1nc(N)nc2c1ncn2C1OC(CO)C(O)C1O (centres undefined)
T/C [12]: 90 % of control
T/C (dose: 100.0 mg/kg/injection, schedule: Q04DX003 (ip), vehicle: saline sonified): 100 % of control
T/C [11]: 86 % of control
T/C (dose: 200.0 mg/kg/injection, schedule: Q04DX003 (ip), vehicle: saline sonified): 100 % of control
T/C [13]: 100 % of control
T/C (dose: 400.0 mg/kg/injection, schedule: Q04DX003 (ip), vehicle: saline sonified): 95 % of control

N#CC(C(=O)C(=O)Nc1ccc(Cl)cc1)c1c(Cl)cccc1Cl (centres undefined)
T/C (dose: 100.0 mg/kg/injection, schedule: Q04DX002 (ip), vehicle: saline with Tween-80): 105 % of control
T/C (dose: 200.0 mg/kg/injection, schedule: Q04DX002 (ip), vehicle: saline with Tween-80): 108 % of control
T/C (dose: 400.0 mg/kg/injection, schedule: Q04DX002 (ip), vehicle: saline with Tween-80): 97 % of control

C#CCSc1ncnc2nc[nH]c12
T/C [14]: 95 % of control
T/C (dose: 25.0 mg/kg/injection, schedule: Q04DX003 (ip), vehicle: saline): 104 % of control
T/C [15]: 109 % of control
T/C (dose: 50.0 mg/kg/injection, schedule: Q04DX003 (ip), vehicle: saline): 100 % of control
T/C (dose: 100.0 mg/kg/injection, schedule: Q01DX009 (ip), vehicle: saline): 86 % of control
T/C [2]: 100 % of control
